This note sets out measurements from patent US6706740B2, “Fungicidal heterocyclic aromatic amides and their compositions, methods of use and preparation” (Dow AgroSciences LLC, priority 1999, dated 2004).

Read-outs that look alike come from different tables or passages of the source.

In test [1] the test system is Erysiphe graminis—ERYSGT. In words: Powdery Mildew of Wheat, in vivo whole plant, 24 Hour Protectant. Conditions: Erysiphe, read-out: ERYSGT in vivo 1 Day Protectant.
The subject of test [2] is Leptosphaeria nodorum—LEPTNO. The test is described as follows: Glume Blotch of Wheat, in vivo whole plant, 24 Hour Protectant. Conditions: for pest or weed control at 100 ppm: Leptosphaeria, read-out: LEPTNO in vivo 1 Day Protectant.
Test [3] relates to Rhizoctonia solani (RHIZSO). The test is described as follows: microbe, parasite or virus in culture. The format is cell-based. Conditions: Rhizoctonia solani, read-out: RHIZSO in vitro Growth Inhibition.
Test [4] has as its system Puccinia recondita—PUCCRT. In words: Brown Rust of Wheat, in vivo whole plant, 24 Hour Protectant. Conditions: for pest or weed control at 100 ppm: Puccinia, read-out: PUCCRT in vivo 1 Day Protectant.
For test [5], the system named is Stagonospora nodorum (Leptosphaeria nodorum—LEPTNO). In words: In vitro fungal growth inhibition, Stagonospora nodorum (LEPTNO). The format is cell-based. Conditions: Leptosphaeria, read-out: LEPTNO in vitro Growth Inhibition.
For test [6], the system named is Phytophthora infestans—PHYTIN. The test is described as follows: whole plant or invertebrate. It counts as in vivo. Conditions: Phytophthora, in Solanum lycopersicum, 24 h, read-out: PHYTIN in vivo 1 Day Protectant.
In test [7] the test system is Septoria tritici—SEPTTR. The test is described as follows: Leaf Blotch of Wheat, in vivo whole plant, 24 Hour Protectant. Conditions: for pest or weed control at 100 ppm: Zymoseptoria tritici, 24 h, read-out: SEPTTR in vivo 1 Day Protectant.
For test [8], the system named is Ustilago maydis (USTIMA). The test is described as follows: microbe, parasite or virus in culture. It counts as cell-based. Conditions: Mycosarcoma maydis, read-out: USTIMA in vitro Growth Inhibition.
Test [9] deals with Phytophthora infestans (PHYTIN). In words: microbe, parasite or virus in culture. The format is cell-based. Conditions: Phytophthora infestans, read-out: PHYTIN in vitro Growth Inhibition.
The test system of test [10] is Magnaporthe grisea (Pyricularia oryzae—PYRIOR). In words: microbe, parasite or virus in culture. The format is cell-based. Conditions: Pyricularia oryzae, read-out: PYRIOR in vitro Growth Inhibition.
The test system of test [11] is Mycosphaerella graminicola (Septoria tritici—SEPTTR). In words: In vitro fungal growth inhibition, Mycosphaerella graminicola (SEPTTR). It counts as cell-based. Conditions: Zymoseptoria tritici, read-out: SEPTTR in vitro Growth Inhibition.
[12] abbreviates: 100 ppm spray, 24 hour protectant, wheat, control of fungal infection vs untreated plants.
The mark [13] stands for this setting: 100 ppm spray, wheat, 24 hour protectant, control of fungal infection vs untreated plants.
Where [14] appears, read: wheat plants sprayed at 100 ppm, inoculated after 24 hours, control of fungal infection vs untreated plants.
Where [15] appears, read: 100 ppm spray, wheat, 24 hour protectant, % control of fungal infection vs untreated plants.

On to `COc1ccnc(C(=O)NC2CC(C)(C)CC(C)(C(=O)CCCc3ccccc3)C2)c1O` (stereo not shown) [Compound 276], for which the pest or weed control at 100 ppm is less than 25% in test [1] (setting [12]), 25 to 74% in test [4] (setting [12]), less than 25% in [6] and 25 to 74% in [7] (setting [12]). For the same compound, in [2] (setting [12]), the “LEPTNO in vivo 1 Day Protectant” value is listed as “+ +”. For the same compound, the inhibition at 25 ppm in test [3] was less than 80%; in [5] (25 ppm in growth medium), greater than 80%; in test [8] it was less than 80%; in test [9], less than 80%; in test [10], less than 80%; in test [11] (25 ppm in growth medium), less than 80%.
With `COc1ccnc(C(=O)Nc2ccccc2Oc2ccc(Cl)cc2)c1O` [Compound 438], the pest or weed control at 100 ppm in [1] (setting [13]), in [2] (setting [13]), in test [4] (setting [13]), in test [6] and in test [7] (setting [13]) was less than 25% each time. In addition, the inhibition at 25 ppm is less than 80% in [3]; greater than 80% in test [5] (25 ppm in growth medium); less than 80% in [8]; less than 80% in [9]; greater than 80% in test [10]; greater than 80% in test [11] (25 ppm in growth medium).
With `COc1ccnc(C(=O)Nc2cccc(Oc3cccc(C)c3)c2)c1O` [Compound 413], the pest or weed control at 100 ppm in test [1] (setting [13]) was less than 25%; in test [2] (setting [13]) it was less than 25%; in test [4] (setting [13]) it was 25 to 74%; in test [6], 25 to 74%; in [7] (setting [13]) it was less than 25%. In addition, the inhibition at 25 ppm in [3] is less than 80%; in test [5] (25 ppm in growth medium), greater than 80%; in [8], less than 80%; in test [9] it was less than 80%; in test [10], greater than 80%; in test [11] (25 ppm in growth medium), greater than 80%.
Take `CC(NC(=O)c1nc(Br)ccc1O)c1ccc(Oc2ccccc2)cc1` (stereo not shown) [Compound 490]: the pest or weed control at 100 ppm was less than 25% in [1] (setting [14]); less than 25% in test [2] (setting [14]); 25 to 74% in [4] (setting [14]); less than 25% in test [6]; 25 to 74% in test [7] (setting [14]). Further, the inhibition at 25 ppm in test [3], in [5] (25 ppm in the growth medium), in [8], in [9], in test [10] and in test [11] (25 ppm in the growth medium) was less than 80% in each case.
As for `COc1ccnc(C(=O)N[C@H]2COC(=O)[C@H](Cc3ccccc3)[C@@H](OC(=O)C(C)C)[C@H](C)OC2=O)c1OC(=O)c1cnc(Cl)c(Cl)c1` [Compound 670], the pest or weed control at 100 ppm in test [1] (setting [15]) and in test [6] was less than 25% each time. Moreover, the “LEPTNO in vivo 1 Day Protectant” value in test [2] (setting [15]) was “+ +”. The inhibition at 25 ppm in [3] was less than 80%; in [5] (25 ppm in growth medium), greater than 80%; in test [8] it was less than 80%; in test [9] it was greater than 80%; in test [10] it was less than 80%; in [11] (25 ppm in growth medium), less than 80%. For the same compound, in test [4] (setting [15]), the “PUCCRT in vivo 1 Day Protectant” value was “+ +”. For the same compound, in test [7] (setting [15]), the “SEPTTR in vivo 1 Day Protectant” value is recorded as “+ +”.
For `COc1ccnc(C(=O)Nc2ccc(Oc3ccccc3C#N)cc2)c1O` [Compound 420], the pest or weed control at 100 ppm in test [1] (setting [13]) is less than 25%; in test [2] (setting [13]), 25 to 74%; in test [4] (setting [13]), less than 25%; in test [6] it was less than 25%; in test [7] (setting [13]), less than 25%. Also, the inhibition at 25 ppm in [3], in test [5] (25 ppm in growth medium), in test [8], in test [9], in [10] and in [11] (25 ppm in growth medium) was less than 80% in each case.
In the case of `COc1ccnc(C(=O)N[C@H]2COC(=O)[C@H](Cc3ccccc3)[C@@H](OC(=O)C(C)C)[C@H](C)OC2=O)c1OC(=O)C1CCCC1` [Compound 611], the pest or weed control at 100 ppm in test [1] (setting [15]) and in test [6] was less than 25% each time. For the same compound, in [2] (setting [15]), the “LEPTNO in vivo 1 Day Protectant” value is recorded as “+ +”. The inhibition at 25 ppm in test [3], in test [5] (25 ppm in growth medium), in test [8], in test [9], in test [10] and in test [11] (25 ppm in growth medium) was less than 80% in each case. The “PUCCRT in vivo 1 Day Protectant” value in test [4] (setting [15]) was “+ +”. Further, the “SEPTTR in vivo 1 Day Protectant” value in test [7] (setting [15]) is on record as “+ +”.
In the case of `COc1ccnc(C(=O)N[C@H]2COC(=O)[C@H](Cc3ccccc3)[C@@H](OC(=O)/C=C(\C)CCC=C(C)C)[C@H](C)OC2=O)c1O` [Compound 396], the pest or weed control at 100 ppm in test [1] (setting [13]) is less than 25%; in test [2] (setting [13]), 25 to 74%; in test [4] (setting [13]), 25 to 74%; in test [6], less than 25%; in test [7] (setting [13]), 25 to 74%. Further, the inhibition at 25 ppm was less than 80% in [3]; greater than 80% in test [5] (25 ppm in growth medium); less than 80% in test [8]; less than 80% in test [9]; greater than 80% in test [10]; greater than 80% in test [11] (25 ppm in growth medium).
Regarding `COC(=O)C(COC(=O)CC(C)OC(=O)C(C)C)NC(=O)c1nccc(OC)c1OC(C)=O` (stereo not shown) [Compound 586], the pest or weed control at 100 ppm in [1] (setting [14]) was less than 25%; in test [2] (setting [14]), 25 to 74%; in test [4] (setting [14]) it was 25 to 74%; in test [6], less than 25%; in test [7] (setting [14]) it was 25 to 74%. For the same compound, the inhibition at 25 ppm in test [3], in test [5] (25 ppm in the growth medium), in [8], in test [9], in test [10] and in test [11] (25 ppm in the growth medium) was less than 80% throughout.
Regarding `COc1ccnc(C(=O)N[C@@H]2C[C@@H](O[Si](C)(C)C(C)(C)C)O[C@@H](C)[C@@H]2OC)c1O` [Compound 326], the pest or weed control at 100 ppm in test [1] (setting [12]) is less than 25%; in test [2] (setting [12]), 25 to 74%; in test [4] (setting [12]), less than 25%; in test [6] it was less than 25%. Moreover, the inhibition at 25 ppm in [3], in test [5], in test [8], in test [9], in test [10] and in [11] was less than 80% in each case. The “SEPTTR in vivo 1 Day Protectant” value in test [7] (setting [12]) is “+ +”.
Consider `COc1ccnc(C(=O)N[C@H]2CO[C@H](C(C)Cc3ccc(C(C)(C)C)cc3)OC2)c1O` (stereo partly shown) [Compound 316], for which the pest or weed control at 100 ppm is less than 25% in test [1] (setting [12]), 25 to 74% in test [2] (setting [12]), less than 25% in [6] and less than 25% in [7] (setting [12]). For the same compound, the inhibition at 25 ppm in test [3] was less than 80%; in [5] (25 ppm in growth medium), greater than 80%; in test [8], greater than 80%; in [9], less than 80%; in test [10] it was greater than 80%; in test [11] (25 ppm in growth medium), less than 80%. Further, the “PUCCRT in vivo 1 Day Protectant” value in test [4] (setting [12]) was “+ +”.
